Assay results from patent publication US9833497B2, “Human originated EGF domain proteins and use of the same” (CHENGDU SOURCEBIO LIMITED-LIABILITY COMPANY, priority 2013, dated 2017).

What was measured:
Assay type in all cases: cell-based
E. coli BL21 = assay: MIC against Gram-negative bacteria: E. coli BL21
In short: (§1)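 Broth microdilution, LB medium, final inoculum 5×10^5 CFU/mL from McFarland 0.5 cultures. Recombinant human EGF domain proteins tested in two-fold steps, n=3. MIC: lowest concentration, no growth.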

Proteus vulgaris = assay: MIC against Gram-negative bacteria: Proteus vulgaris
In short: as §1

Proteus mirabilis = assay: MIC against Gram-negative bacteria: Proteus mirabilis
In short: as §1

E. coli DH5α = assay: Antibacterial activity: MIC and growth curve against E. coli DH5α in 96-well plate; settings: minimal inhibitory concentration against E. coli DH5α; 96-well plate, 5×10^5 CFU/mL, 37° C., judged after 8 h
In short: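 Log-phase bacteria (OD600 ~0.5) resuspended in LB at 5×10^5 CFU/mL, exposed to recombinant protein at 50, 25, 12.5 μg/mL final in triplicate, 37 °C shaking at 175 rpm. OD600 read every 30 min; MIC is lowest concentration showing no growth.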

Citrobacter diversus = assay: MIC against Gram-negative bacteria: Citrobacter diversus
In short: as §1

Moraxella catarrhalis = assay: MIC against Gram-negative bacteria: Moraxella catarrhalis
In short: as §1

Aeromonas hydrophila = assay: MIC against Gram-negative bacteria: Aeromonas hydrophila
In short: as §1

Enterobacter cloacae = assay: MIC against Gram-negative bacteria: Enterobacter cloacae
In short: as §1

Serratia marcescens = assay: MIC against Gram-negative bacteria: Serratia marcescens
In short: as §1

Pseudomonas aeruginosa = assay: MIC against Gram-negative bacteria: Pseudomonas aeruginosa
In short: as §1

Klebsiella pneumonia = assay: MIC against Gram-negative bacteria: Klebsiella pneumonia
In short: as §1

[1] = 96-well plate, 5×10^5 CFU/mL, 37° C., 10 h
[2] = 10 h cultivation at 37° C., 5×10^5 CFU/mL, two-fold serial dilution

Substance: PRT35 (AMDLCARRLLDPCEHQCDPETGRREHRAAGECLCYEGYMKDPVHKHLCI; listed as Homo sapiens)
- MIC (μg/mL) E. coli BL21 (E. coli BL21; E. coli BL21, 96-well plate, 5×10^5 CFU/mL, 37° C., 10 h): 50 µg/mL
- MIC (μg/mL) P. vulgaris (Proteus vulgaris; Proteus vulgaris, 96-well plate, 5×10^5 CFU/mL, 37° C., 10 h): 25 µg/mL
- MIC (μg/mL) P. mirabilis (Proteus mirabilis; Proteus mirabilis, 96-well plate, 5×10^5 CFU/mL, 37° C., 10 h): 12.5 µg/mL
- MIC (E. coli DH5α): 12.5 µg/mL
- MIC (μg/mL) C. diversus (Citrobacter diversus; Citrobacter diversus, 96-well plate, 5×10^5 CFU/mL, 37° C., 10 h): 12.5 µg/mL
- MIC (μg/mL) M. catarrhalis (Moraxella catarrhalis; Moraxella catarrhalis, 96-well plate, 5×10^5 CFU/mL, 37° C., 10 h): 50 µg/mL
- MIC (μg/mL) A. hydrophila (Aeromonas hydrophila; Aeromonas hydrophila, 96-well plate, 5×10^5 CFU/mL, 37° C., 10 h): 25 µg/mL
- MIC (μg/mL) E. cloacae (Enterobacter cloacae; Enterobacter cloacae, 96-well plate, 5×10^5 CFU/mL, 37° C., 10 h): 50 µg/mL
- MIC (μg/mL) S. marcescens (Serratia marcescens; Serratia marcescens, 96-well plate, 5×10^5 CFU/mL, 37° C., 10 h): 12.5 µg/mL
- MIC (μg/mL) P. aeruginosa (Pseudomonas aeruginosa; Pseudomonas aeruginosa, 96-well plate, 5×10^5 CFU/mL, 37° C., 10 h): 25 µg/mL
- MIC (μg/mL) K. pneumonia (Klebsiella pneumonia; Klebsiella pneumonia, 96-well plate, 5×10^5 CFU/mL, 37° C., 10 h): 12.5 µg/mL

Substance: PRT662 (RIYFCQIPCLNGGRCIGRDECWCPANSTGKFCH; listed as Homo sapiens)
- MIC E. coli BL21 (E. coli BL21; [1]): 12.5 µg/mL
- MIC P. vulgaris (Proteus vulgaris; [1]): 12.5 µg/mL
- MIC P. mirabilis (Proteus mirabilis; [1]): 50 µg/mL
- MIC (E. coli DH5α): 25 µg/mL
- MIC C. diversus (Citrobacter diversus; [1]): 25 µg/mL
- MIC M. catarrhalis (Moraxella catarrhalis; [1]): 25 µg/mL
- MIC A. hydrophila (Aeromonas hydrophila; [1]): 12.5 µg/mL
- MIC E. cloacae (Enterobacter cloacae; [1]): 25 µg/mL
- MIC S. marcescens (Serratia marcescens; [1]): 50 µg/mL
- MIC P. aeruginosa (Pseudomonas aeruginosa; [1]): 25 µg/mL
- MIC K. pneumonia (Klebsiella pneumonia; [1]): 50 µg/mL

Substance: PRT559 (CHCSAEGSLHAACDPRSGQCSCRPRVTGLRCDTCVPGAYNFPYCEA; listed as Homo sapiens)
- MIC against E. coli BL21 (E. coli BL21; [1]): 50 µg/mL
- MIC against P. vulgaris (Proteus vulgaris; [1]): 50 µg/mL
- MIC against P. mirabilis (Proteus mirabilis; [1]): 25 µg/mL
- MIC (E. coli DH5α): 25 µg/mL
- MIC against C. diversus (Citrobacter diversus; [1]): 25 µg/mL
- MIC against M. catarrhalis (Moraxella catarrhalis; [1]): 12.5 µg/mL
- MIC against A. hydrophila (Aeromonas hydrophila; [1]): 50 µg/mL
- MIC against E. cloacae (Enterobacter cloacae; [1]): 25 µg/mL
- MIC against S. marcescens (Serratia marcescens; [1]): 25 µg/mL
- MIC against P. aeruginosa (Pseudomonas aeruginosa; [1]): 25 µg/mL
- MIC against K. pneumonia (Klebsiella pneumonia; [1]): 12.5 µg/mL

Substance: PRT599 (CECDPDGTISGGICVSHSDPALGSVAGQCLCKENVEGAKCDQCKPNHYGLSATDPLGCQP; listed as Homo sapiens)
- MIC E. coli BL21 (E. coli BL21; [1]): 25 µg/mL
- MIC P. vulgaris (Proteus vulgaris; [1]): 12.5 µg/mL
- MIC P. mirabilis (Proteus mirabilis; [1]): 50 µg/mL
- MIC (E. coli DH5α): 12.5 µg/mL
- MIC C. diversus (Citrobacter diversus; [1]): 50 µg/mL
- MIC M. catarrhalis (Moraxella catarrhalis; [1]): 12.5 µg/mL
- MIC A. hydrophila (Aeromonas hydrophila; [1]): 12.5 µg/mL
- MIC E. cloacae (Enterobacter cloacae; [1]): 50 µg/mL
- MIC S. marcescens (Serratia marcescens; [1]): 50 µg/mL
- MIC P. aeruginosa (Pseudomonas aeruginosa; [1]): 50 µg/mL
- MIC K. pneumonia (Klebsiella pneumonia; [1]): 12.5 µg/mL

Substance: PRT1148 (NINECSSSPCLHGADCEDHINGYVCKCQPGWSGHHCE; listed as Homo sapiens)
- MIC E. coli BL21 (E. coli BL21; [2]): 25 µg/mL
- MIC P. vulgaris (Proteus vulgaris; [2]): 25 µg/mL
- MIC P. mirabilis (Proteus mirabilis; [2]): 12.5 µg/mL
- MIC (E. coli DH5α): 12.5 µg/mL
- MIC C. diversus (Citrobacter diversus; [2]): 12.5 µg/mL
- MIC M. catarrhalis (Moraxella catarrhalis; [2]): 12.5 µg/mL
- MIC A. hydrophila (Aeromonas hydrophila; [2]): 12.5 µg/mL
- MIC E. cloacae (Enterobacter cloacae; [2]): 12.5 µg/mL
- MIC S. marcescens (Serratia marcescens; [2]): 12.5 µg/mL
- MIC P. aeruginosa (Pseudomonas aeruginosa; [2]): 12.5 µg/mL
- MIC K. pneumonia (Klebsiella pneumonia; [2]): 25 µg/mL

Substance: PRT921 (NIDDCASAACFHGATCHDRVASFYCECPHGRTGLLCH; listed as Homo sapiens)
- MIC (E. coli BL21; E. coli BL21, 10 h cultivation at 37° C.): 12.5 µg/mL
- MIC (Proteus vulgaris; P. vulgaris, 10 h cultivation at 37° C.): 25 µg/mL
- MIC (Proteus mirabilis; P. mirabilis, 10 h cultivation at 37° C.): 12.5 µg/mL
- MIC (E. coli DH5α): 12.5 µg/mL
- MIC (Citrobacter diversus; C. diversus, 10 h cultivation at 37° C.): 12.5 µg/mL
- MIC (Moraxella catarrhalis; M. catarrhalis, 10 h cultivation at 37° C.): 25 µg/mL
- MIC (Aeromonas hydrophila; A. hydrophila, 10 h cultivation at 37° C.): 25 µg/mL
- MIC (Enterobacter cloacae; E. cloacae, 10 h cultivation at 37° C.): 12.5 µg/mL
- MIC (Serratia marcescens; S. marcescens, 10 h cultivation at 37° C.): 12.5 µg/mL
- MIC (Pseudomonas aeruginosa; P. aeruginosa, 10 h cultivation at 37° C.): 25 µg/mL
- MIC (Klebsiella pneumonia; K. pneumonia, 10 h cultivation at 37° C.): 12.5 µg/mL
